Structures can show the parent of a compound that is named as a salt.
Tests used:
Type in all cases: cell-based
[1] = target: adenosine 2a receptor (Homo sapiens, UniProt P29274); assay: Agonist activity against adenosine 2a receptor (CHO cells, cAMP/SPAP reporter); conditions: CHO cells transfected with human receptor; basal cAMP via SPAP; mean of all the versions tested
Protocol: (§1) (1) Agonist activity against adenosine 2a, adenosine 1 and adenosine 3 receptor subtypes.
(§2) The effect of test compounds was determined by their effects on basal levels of cAMP (A2a) or on forskolin-enhanced cAMP (A1 and A3) as reflected by changes in levels of SPAP.

[2] = target: T1, adenosine 1 receptor (Homo sapiens, UniProt P30542); assay: Agonist activity against adenosine 1 receptor (CHO cells, forskolin-enhanced cAMP/SPAP reporter); conditions: CHO cells transfected with human receptor; forskolin-enhanced cAMP via SPAP; mean of all the versions tested
T1 sequence (P30542 1-326): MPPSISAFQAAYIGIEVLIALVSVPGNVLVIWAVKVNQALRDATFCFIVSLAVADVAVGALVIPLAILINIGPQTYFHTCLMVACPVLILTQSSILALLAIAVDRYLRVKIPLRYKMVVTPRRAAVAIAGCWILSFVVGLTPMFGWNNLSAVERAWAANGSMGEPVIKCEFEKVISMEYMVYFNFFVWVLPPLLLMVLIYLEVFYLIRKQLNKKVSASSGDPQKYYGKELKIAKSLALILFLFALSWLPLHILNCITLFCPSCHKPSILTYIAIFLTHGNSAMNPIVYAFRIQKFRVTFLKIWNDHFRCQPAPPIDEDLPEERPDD
Protocol: as §1, §2

[3] = target: T2, adenosine 3 receptor (Homo sapiens, UniProt P0DMS8); assay: Agonist activity against adenosine 3 receptor (CHO cells, forskolin-enhanced cAMP/SPAP reporter); conditions: CHO cells transfected with human receptor; forskolin-enhanced cAMP via SPAP; mean of all the versions tested
T2 sequence (P0DMS8 1-318): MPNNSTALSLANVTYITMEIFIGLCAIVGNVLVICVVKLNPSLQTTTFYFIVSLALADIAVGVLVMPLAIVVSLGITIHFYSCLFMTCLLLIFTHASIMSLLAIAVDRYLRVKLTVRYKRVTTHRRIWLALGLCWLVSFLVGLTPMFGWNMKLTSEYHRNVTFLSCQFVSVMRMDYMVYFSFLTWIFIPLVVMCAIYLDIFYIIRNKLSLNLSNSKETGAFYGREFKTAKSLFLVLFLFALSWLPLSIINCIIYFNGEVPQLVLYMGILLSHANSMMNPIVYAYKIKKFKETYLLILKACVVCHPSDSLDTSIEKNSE
Protocol: as §1, §2

Chain of adenosine 2a receptor (P29274 whole entry): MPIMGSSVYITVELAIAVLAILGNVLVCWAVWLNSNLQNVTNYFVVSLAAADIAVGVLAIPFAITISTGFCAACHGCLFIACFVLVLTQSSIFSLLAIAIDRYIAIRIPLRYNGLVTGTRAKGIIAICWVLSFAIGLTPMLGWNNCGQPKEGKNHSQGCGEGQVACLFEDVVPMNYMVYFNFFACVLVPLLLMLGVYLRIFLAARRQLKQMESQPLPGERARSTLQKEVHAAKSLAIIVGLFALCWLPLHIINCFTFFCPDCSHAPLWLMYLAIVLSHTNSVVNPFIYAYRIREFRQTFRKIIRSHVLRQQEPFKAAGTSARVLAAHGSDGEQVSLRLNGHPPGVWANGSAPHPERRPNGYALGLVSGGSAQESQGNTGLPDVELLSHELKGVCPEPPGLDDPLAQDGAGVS

Compound | A2a EC50 as a ratio of that of NECA [1] | A1 EC50 as a ratio of that of NECA [2] | A3 EC50 as a ratio of that of NECA [3]
COc1ccc(CCNc2nc(N)c3ncn([C@@H]4O[C@H](c5nnn(C)n5)[C@@H](O)[C@H]4O)c3n2)cc1OC.O=CO [Example 38, (2R,3R,4S,5R)-2-{6-Amino-2-[2-(3,4-dimethoxy-phenyl)-ethylamino]-purin-9-yl}-5-(2-methyl-2H-tetrazol-5-yl)-tetrahydro-furan-3,4-diol Formate] | 0.13 | 946 | >315
Cn1nnc([C@H]2O[C@@H](n3cnc4c(N)nc(NC5CC6CCC5C6)nc43)[C@H](O)[C@@H]2O)n1.O=CO (stereo partly drawn) [Example 39, (2R,3R,4S,5R)-2-[6-Amino-2-(bicyclo[2.2.1]hept-2-ylamino)-purin-9-yl]-5-(2-methyl-2H-tetrazol-5-yl)-tetrahydro-furan-3,4-diol Formate] | 0.31 | 1429 | >315
CC(C)n1nnc(C2OC(n3cnc4c(NC(CO)Cc5ccccc5)nc(NCCc5cn(C)cn5)nc43)C(O)C2O)n1 [Example 40, (2R,3R,4S,5R)-2-{6-(1S-Hydroxymethyl-2-phenyl-ethylamino)-2-[2-(1-methyl-1H-imidazol-4-yl)-ethylamino]-purin-9-yl}-5-(2-isopropyl-2H-tetrazol-5-yl)-tetrahydro-furan-3,4-diol Formate] | 0.31 | 22.1 | >232
CC(C)n1nnc([C@H]2O[C@@H](n3cnc4c(NC5CCCC5)nc(NCCc5cn(C)cn5)nc43)[C@H](O)[C@@H]2O)n1.O=CO [Example 41, (2R,3R,4S,5R)-2-{6-Cyclopentylamino-2-[2-(1-methyl-1H-imidazol-4-yl)-ethylamino]-purin-9-yl}-5-(2-isopropyl-2H-tetrazol-5-yl)-tetrahydro-furan-3,4-diol Formate] | 0.73 | 28.9 | >232
COc1ccc(CCNc2nc(N)c3ncn([C@@H]4O[C@H](c5nnn(C(C)C)n5)[C@@H](O)[C@H]4O)c3n2)cc1OC.O=CO [Example 42, (2R,3R,4S,5R)-2-{6-Amino-2-[2-(3,4-dimethoxy-phenyl)-ethylamino]-purin-9-yl}-5-(2-isopropyl-2H-tetrazol-5-yl)-tetrahydro-furan-3,4-diol Formate] | 0.63 | 414.9 | >413
CCn1nnc([C@H]2O[C@@H](n3cnc4c(NCC(c5ccccc5)c5ccccc5)nc(NCCN5CCCC5)nc43)[C@H](O)[C@@H]2O)n1.O=C(O)C(F)(F)F.O=C(O)C(F)(F)F.O=C(O)C(F)(F)F [Example 43, (2R,3R,4S,5R)-2-[6-(2,2-Diphenyl-ethylamino)-2-(2-pyrrolidin-1-yl-ethylamino)-purin-9-yl]-5-(2-ethyl-2H-tetrazol-5-yl)-tetrahydro-furan-3,4-diol tris(Trifluoroacetate)] | 2.23 | 71.35 | >546
CCn1nnc([C@H]2O[C@@H](n3cnc4c(NCC(c5ccccc5)c5ccccc5)nc(NCCN5CCOCC5)nc43)[C@H](O)[C@@H]2O)n1.O=C(O)C(F)(F)F.O=C(O)C(F)(F)F.O=C(O)C(F)(F)F [Example 44, (2R,3R,4S,5R)-2-[6-(2,2-Diphenyl-ethylamino)-2-(2-morpholin-4-yl-ethylamino)-purin-9-yl]-5-(2-ethyl-2H-tetrazol-5-yl)-tetrahydro-furan-3,4-diol tris(Trifluoroacetate)] | 3.25 | 44.11 | >546
CCn1nnc([C@H]2O[C@@H](n3cnc4c(NCC(c5ccccc5)c5ccccc5)nc(NC5CCS(=O)(=O)C5)nc43)[C@H](O)[C@@H]2O)n1.O=C(O)C(F)(F)F.O=C(O)C(F)(F)F (stereo partly drawn) [Example 45] | 2.26 | >1578.00 | >420
CCn1nnc([C@H]2O[C@@H](n3cnc4c(NCC(c5ccccc5)c5ccccc5)nc(NCCN5CCCCC5)nc43)[C@H](O)[C@@H]2O)n1.O=C(O)C(F)(F)F.O=C(O)C(F)(F)F [Example 46] | 1.37 | 64.00 | >216
CCn1nnc([C@H]2O[C@@H](n3cnc4c(NCC(c5ccccc5)c5ccccc5)nc(NCCO)nc43)[C@H](O)[C@@H]2O)n1.O=C(O)C(F)(F)F [Example 47, (2R,3R,4S,5R)-2-[6-(2,2-Diphenyl-ethylamino)-2-(2-hydroxy-ethylamino)-purin-9-yl]-5-(2-ethyl-2H-tetrazol-5-yl)-tetrahydro-furan-3,4-diol Trifluoroacetate] | 1.06 | 27.40 | >216
CCn1nnc([C@H]2O[C@@H](n3cnc4c(NCc5cccc(I)c5)nc(NCCN5CCOCC5)nc43)[C@H](O)[C@@H]2O)n1 [Example 48, (2R,3S,4R,5R)-2-(2-Ethyl-2H-tetrazol-5-yl)-5-[6-(3-iodo-benzylamino)-2-(2-morpholin-4-yl-ethylamino)-purin-9-yl]-tetrahydro-furan-3,4-diol] | 4.12 | 102.00 | >181
CCn1nnc([C@H]2O[C@@H](n3cnc4c(NCCc5ccccc5)nc(NCCN5CCOCC5)nc43)[C@H](O)[C@@H]2O)n1 [Example 49, (2R,3S,4R,5R)-2-(2-Ethyl-2H-tetrazol-5-yl)-5-[2-(2-morpholin-4-yl-ethylamino)-6-phenethylamino-purin-9-yl]-tetrahydro-furan-3,4-diol] | 3.28 | 158.70 | >214
CC(=O)O.CC(=O)O.CCn1nnc(C2OC(n3cnc4c(NCCN5CCOCC5)nc(NCCc5cn(C)cn5)nc43)C(O)C2O)n1 [Example 50, (2R,3S,4R,5R)-2-(2-Ethyl-2H-tetrazol-5-yl)-5-[2-[2-(1-methyl-1H-imidazol-4-yl)-ethylamino]-6-(2-morpholin-4-yl-ethylamino)-purin-9-yl]-tetrahydro-furan-3,4-diol Diacetate] | 1.48 | 2443.00 | >86
CC(=O)O.CCn1nnc([C@H]2O[C@@H](n3cnc4c(NCCC(C)(C)C)nc(NCCNc5ccccn5)nc43)[C@H](O)[C@@H]2O)n1 [Example 51, (2R,3R,4S,5R)-2-{6-(3,3-Dimethyl-butylamino)-2-[2-(pyridin-2-ylamino)-ethylamino]-purin-9-yl}-5-(2-ethyl-2H-tetrazol-5-yl)-tetrahydro-furan-3,4-diol Acetate] | 1.46 | 144.00 | >42
CCn1nnc(C2OC(n3cnc4c(NCCC(C)(C)C)nc(NC(CO)Cc5ccccc5)nc43)C(O)C2O)n1 [Example 52, (2R,3R,4S,5R)-2-[6-(3,3-Dimethyl-butylamino)-2-(1S-hydroxymethyl-2-phenyl-ethylamino)-purin-9-yl]-5-(2-ethyl-2H-tetrazol-5-yl)-tetrahydro-furan-3,4-diol Acetate] | 9.90 | 481.30 | >736
CCn1nnc([C@H]2O[C@@H](n3cnc4c(N)nc(N[C@H]5CC[C@H](N)CC5)nc43)[C@H](O)[C@@H]2O)n1 [Example 53, (2R,3R,4S,5R)-2-[6-Amino-2-(trans-4-amino-cyclohexylamino)-purin-9-yl]-5-(2-ethyl-2H-tetrazol-5-yl)-tetrahydro-furan-3,4-diol] | 4.14 | 298.30 | >960
CCn1nnc([C@H]2O[C@@H](n3cnc4c(N)nc(NCCc5cn(C)cn5)nc43)[C@H](O)[C@@H]2O)n1.O=CO [Example 54, (2R,3R,4S,5R)-2-{6-Amino-2-[2-(1-methyl-1H-imidazol-4-yl)-ethylamino]-purin-9-yl}-5-(2-ethyl-2H-tetrazol-5-yl)-tetrahydro-furan-3,4-diol Formate] | 1.16 | 267.60 | >175
CCn1nnc([C@H]2O[C@@H](n3cnc4c(N)nc(NCCNc5ccccn5)nc43)[C@H](O)[C@@H]2O)n1.O=C(O)C(F)(F)F [Example 55, (2R,3R,4S,5R)-2-{6-Amino-2-[2-(pyridin-2-ylamino)-ethylamino)-purin-9-yl}-5-(2-ethyl-2H-tetrazol-5-yl)-tetrahydro-furan-3,4-diol Trifluoroacetate] | 5.77 | 1136.00 | >435
